Measurements: patent US20040152772A1, “1-butyric acid derivatives and the use thereof” (priority 2001, published 2004)

Legend:
Novikoff hepatoma cells = test: Proliferation of Novikoff hepatoma cells, cell count per flask after four days of cultivation; format: cell-based; conditions: FIGS. 1 and 2
Text: The Novikoff hepatoma cells that were used derived from the Tumor Bank of the German Cancer Research Center, Heidelberg (Cancer Research 1951, 17, 1010). 100,000 cells were spread out per 25 cm^2 of cultivation surface on each occasion. After having been dissolved in a solvent, such as e.g. water, diluted ethanol, dimethyl sulfoxide or a similar material that is suitable for use in cell cultures, the substance in accordance with the invention according to Example 1, or L-cycloserine, or dehydrothreonine was added to the culture medium in increasing concentrations, e.g. L-cycloserine (Compound 16) or dehydrothreonine (Compound 2) in the range of concentrations from 80 μM-5000 μM; and carbomethoxypropionyl cyanide (Compound 13) in the range of concentrations from 100 μM-300 μM. The cell count per flask was enumerated after four days of cultivation.

Novikoff cells = test: Effect on the metabolism (flow of glycolysis) of Novikoff cells; format: cell-based; conditions: FIG. 3

| SMILES | inhibition of proliferation (cell count per flask) in comparison to the control sample (Novikoff hepatoma cells; concentrations 100 μM-300 μM) | flow of glycolysis (Novikoff cells) | inhibition of proliferation (cell count per flask) in comparison to the control sample (Novikoff hepatoma cells; concentrations 80 μM-5000 μM) |
| --- | --- | --- | --- |
| COC(=O)CCC(=O)C#N [Compound 9, methyl ester of 4-cyano, 4-oxo-butanoic acid] | dose-dependent inhibition of proliferation | massively inhibited the flow of glycolysis | – |
| N[C@H]1CONC1=O [Compound 16, L-cycloserine] | – | – | dose-dependent inhibition of proliferation |
| C/C(O)=C(/N)C(=O)O [Compound 2, dehydrothreonine] | – | – | dose-dependent inhibition of proliferation |
